This note sets out measurements from patent EP4745153A1, “GLP-1, GIP AND GCG RECEPTOR […] USE THEREOF” (Jiangsu Hengrui Pharmaceuticals Co., Ltd., priority 2023, dated 2025).

One data set addresses T1, human GLP-1R (Homo sapiens, UniProt P43220).
T1 construct: expressed in transfected cells; host or cells: CHO-K1 clonal cell line
Nature of the data set: cAMP HTRF agonist activity assay in CHO-K1 cells expressing GLP-1R. On Activity against human GLP-1R (EC50 nM): 5% FBS, 0.1% Casein. The class given is cell-based. Here is the method:
Functional activity was determined in CHO-K1 clonal cell lines expressing GIPR, GLP-1R, and GCGR. […] Each recipient cell (5000 cells/well) was added to an SV 96-well plate (Cisbio, 66PL96025) and incubated with the prepared polypeptide at 37°Cfor 30 min. The resulting increase in intracellular cAMP was quantitatively measured using the cAMP-GS dynamic HTRF assay kit (Cisbio, 62AM4PEJ). Briefly, the intracellular cAMP levels were determined by adding cAMP-d2 conjugate in cell lysis buffer, followed by the antibody anti-cAMP-Eu cryptate (also in cell lysis buffer).
Using the maximum response percentage vs. the added polypeptide concentration, the relative EC50 values were derived through nonlinear regression analysis and fitted to a four-parameter logarithmic equation. For specific data, refer to Tables 7-1 to 7-8 below. […]
A general note: TR-FRET usually uses a lanthanide donor and a delayed reading to cut background.

Data set [1] in a line: Pharmacokinetics in mice after single intravenous injection. The note with it: male, C57, mouse, in vivo, iv. On the set-up: species or system C57 mice. Here is the method:
Male C57 mice were used as test animals. The target compound was administered via a single intravenous injection, and the pharmacokinetic characteristics of the compound in C57 mice in vivo (plasma) were determined.
Male C57 mice, weighing approximately 25g, aged 4-6 weeks. After preparing the polypeptide compound solution using 1×PBS dissolving solution, the compound was administered intravenously at a dose of 200 nmol/kg, where each compound was administered to 3 animals. Blood samples of 60 µL were collected at 5 min, 15 min, 0.5 h, 1 h, 2 h, 4 h, 6 h, 24 h, 48 h and 72 h after the infusion was completed and transferred to centrifuge tubes containing EDTA-K2 anticoagulant. Whole blood samples were centrifuged at 4000 g for 5 min at 4°C. Plasma was separated and plasma samples were frozen and stored at -80 °C.
Sample pretreatment method: 30 µL of plasma samples was taken, and 120 µL of 0.1% formic acid in methanol containing 1 ng/mL internal standard verapamil was added. The mixture was vortexed for 5 min, and centrifuged at 10000 rpm for 10 min at low temperature. 70 µL of supernatant was taken, and 70 µL of water was added and mixed well. Analysis was performed by LC-MS instrument.
LC-MS analysis method: (1) chromatographic conditions: mobile phases A and B: 0.1% formic acid in water and 0.1% formic acid in acetonitrile, respectively; gradient elution mode; flow rate: 0.5 mL/min; injection volume: 10 µL; chromatographic column: nanomicro Unisil C18aq (4.6 mm × 150 mm, 5 µm); column temperature: 40°C. (2) Mass spectrometry conditions: For mass spectrometry, an electrospray ionization source (ESI), positive ion analysis mode, and multiple reaction monitoring (MRM) scanning mode were used.
For data processing, SCIEX OS (Version 2.1.6) software was used to quantify blood drug concentration data and PKSolver (Version 2.0) software was used to calculate pharmacokinetic parameters.

Setting [2] is: read-out: Activity against human GLP-1R (EC50 nM).

SMILES strings stand for the structures. Read-outs that look alike come from different tables or passages of the source. Starred links: 1 amine or outer side, 2 acyl side, 3 side chain; linkers in the order of their positions; H or OH if unused. Non-standard residues stand in square brackets, D forms with d. Residues, ends and D or L forms follow the SMILES beside them. Groups on a side chain read outwards from the residue. *: point of attachment. C20 diacid = O=C(O)CCCCCCCCCCCCCCCCCCC(=O)*; γGlu = O=C(O)[C@H](CCC(=O)[*:2])N[*:1]; αMeK = C[C@](N)(CCCCN)C(=O)O; AEEA = NCCOCCOCC(=O)O; Aib = CC(C)(N)C(=O)O

T1 sequence (P43220 24-463): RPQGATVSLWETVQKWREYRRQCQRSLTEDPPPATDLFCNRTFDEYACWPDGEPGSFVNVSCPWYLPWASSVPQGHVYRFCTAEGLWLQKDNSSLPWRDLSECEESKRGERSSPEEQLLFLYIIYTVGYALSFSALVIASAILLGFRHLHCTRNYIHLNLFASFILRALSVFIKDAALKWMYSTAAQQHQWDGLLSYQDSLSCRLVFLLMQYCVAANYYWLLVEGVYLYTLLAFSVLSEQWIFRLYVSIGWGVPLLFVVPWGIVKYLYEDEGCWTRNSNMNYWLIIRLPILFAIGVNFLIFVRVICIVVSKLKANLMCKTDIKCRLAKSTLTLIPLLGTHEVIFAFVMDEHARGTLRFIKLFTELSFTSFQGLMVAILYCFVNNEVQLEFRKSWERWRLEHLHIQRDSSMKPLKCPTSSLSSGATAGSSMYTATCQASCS

A word on the EC50: it is the concentration that produces a half-maximal response. On human GLP-1R, `CC[C@H](C)[C@H](NC(=O)[C@H](CC(C)C)NC(=O)[C@H](Cc1c[nH]c2ccccc12)NC(=O)[C@H](CCC(=O)O)NC(=O)[C@@H](NC(=O)[C@H](Cc1ccccc1)NC(=O)[C@H](CCC(=O)O)NC(=O)[C@H](CCC(N)=O)NC(=O)[C@H](C)NC(=O)[C@H](C)NC(=O)[C@H](CCCCN)NC(=O)[C@H](CCCCNC(=O)COCCOCCNC(=O)COCCOCCNC(=O)CC[C@H](NC(=O)CCCCCCCCCCCCCCCCCCC(=O)O)C(=O)O)NC(=O)[C@H](CCC(=O)O)NC(=O)[C@H](CC(C)C)NC(=O)[C@H](Cc1ccc(O)cc1)NC(=O)[C@](C)(CCCCN)NC(=O)[C@H](CO)NC(=O)[C@H](Cc1ccc(O)cc1)NC(=O)[C@H](CC(=O)O)NC(=O)[C@H](CO)NC(=O)[C@@H](NC(=O)[C@H](Cc1ccccc1)NC(=O)[C@@H](NC(=O)CNC(=O)[C@H](Cc1c[nH]cn1)NC(=O)C(C)(C)NC(=O)[C@@H](N)Cc1c[nH]cn1)[C@@H](C)O)[C@@H](C)O)C(C)C)C(=O)N[C@@H](CCC(=O)O)C(=O)NCC(=O)NCC(=O)N1CCC[C@H]1C(=O)N[C@@H](CO)C(=O)N[C@@H](CO)C(=O)NCC(=O)N[C@@H](C)C(=O)N1CCC[C@H]1C(=O)N1CCC[C@H]1C(=O)N1CCC[C@H]1C(=O)N[C@@H](CO)C(N)=O` [Compound 0115] (H-H[Aib]HGTFTSDYS[αMeK]YLEK([AEEA-AEEA-γGlu-C20 diacid])KAAQEFVEWLIEGGPSSGAPPPS-NH2) returned an EC50 of 0.023 nM. As a reminder, the clearance is the volume of plasma or blood freed of the substance per unit of time. Read a high clearance as a high capacity for elimination. Usually half-life stands for the time in which the quantity being followed falls by half. Consider `CC[C@H](C)[C@H](NC(=O)[C@H](CO)NC(=O)[C@H](CC(C)C)NC(=O)[C@H](CC(=O)O)NC(=O)[C@H](CO)NC(=O)[C@@H](NC(=O)[C@H](Cc1ccccc1)NC(=O)[C@@H](NC(=O)CNC(=O)[C@H](Cc1c[nH]cn1)NC(=O)C(C)(C)NC(=O)[C@@H](N)Cc1c[nH]cn1)[C@@H](C)O)[C@@H](C)O)C(=O)N[C@@H](CC(C)C)C(=O)N[C@@H](CC(C)C)C(=O)N[C@@H](CCC(=O)O)C(=O)N[C@@H](CCCCNC(=O)COCCOCCNC(=O)COCCOCCNC(=O)CC[C@H](NC(=O)CCCCCCCCCCCCCCCCCCC(=O)O)C(=O)O)C(=O)N[C@@H](CCCCN)C(=O)N[C@@H](C)C(=O)N[C@@H](C)C(=O)N[C@@H](CCC(N)=O)C(=O)N[C@@H](CCC(=O)O)C(=O)N[C@@H](Cc1ccccc1)C(=O)N[C@H](C(=O)N[C@@H](CCC(=O)O)C(=O)N[C@@H](Cc1c[nH]c2ccccc12)C(=O)N[C@@H](CC(C)C)C(=O)N[C@@H](CC(C)C)C(=O)N[C@@H](C)C(=O)N[C@H](CCC(=O)O)C(=O)NCC(=O)N1CCC[C@H]1C(=O)N[C@@H](CO)C(=O)N[C@@H](CO)C(=O)NCC(=O)N[C@@H](C)C(=O)N1CCC[C@H]1C(=O)N1CCC[C@H]1C(=O)N1CCC[C@H]1C(=O)N[C@@H](CO)C(N)=O)C(C)C` [Compound 0144], for which the EC50 on human GLP-1R (setting [2]) came to 0.035 nM. In data set [1], this molecule showed a clearance of 0.114 mL/min/kg and a half-life of 9.7 h. With `CC[C@H](C)[C@H](NC(=O)[C@H](CO)NC(=O)[C@H](Cc1ccc(O)cc1)NC(=O)[C@H](CC(=O)O)NC(=O)[C@H](CO)NC(=O)[C@@H](NC(=O)[C@H](Cc1ccccc1)NC(=O)[C@@H](NC(=O)CNC(=O)[C@H](CCC(N)=O)NC(=O)C(C)(C)NC(=O)[C@@H](N)Cc1c[nH]cn1)[C@@H](C)O)[C@@H](C)O)C(=O)N[C@@H](CC(C)C)C(=O)N[C@@H](CC(C)C)C(=O)N[C@@H](CCC(=O)O)C(=O)N[C@@H](CCCCNC(=O)COCCOCCNC(=O)COCCOCCNC(=O)CC[C@H](NC(=O)CCCCCCCCCCCCCCCCCCC(=O)O)C(=O)O)C(=O)N[C@@H](CCCCN)C(=O)N[C@@H](C)C(=O)N[C@@H](C)C(=O)N[C@@H](CCC(N)=O)C(=O)N[C@@H](CCC(=O)O)C(=O)N[C@@H](Cc1ccccc1)C(=O)N[C@H](C(=O)N[C@@H](CCC(=O)O)C(=O)N[C@@H](Cc1c[nH]c2ccccc12)C(=O)N[C@@H](CC(C)C)C(=O)N[C@@H](CC(C)C)C(=O)N[C@@H](C)C(=O)NCC(=O)NCC(=O)N1CCC[C@H]1C(=O)N[C@@H](CO)C(=O)N[C@@H](CO)C(=O)NCC(=O)N[C@@H](C)C(=O)N1CCC[C@H]1C(=O)N1CCC[C@H]1C(=O)N1CCC[C@H]1C(=O)N[C@@H](CO)C(N)=O)C(C)C` [Compound 0154] (H-H[Aib]QGTFTSDYSILLEK([AEEA-AEEA-γGlu-C20 diacid])KAAQEFVEWLLAGGPSSGAPPPS-NH2), the EC50 on human GLP-1R (setting [2]) is 0.033 nM. Consider `CC(C)C[C@H](NC(=O)[C@H](CC(C)C)NC(=O)[C@H](Cc1c[nH]c2ccccc12)NC(=O)[C@H](CCC(=O)O)NC(=O)[C@@H](NC(=O)[C@H](Cc1ccccc1)NC(=O)[C@H](CCC(=O)O)NC(=O)[C@H](CCC(N)=O)NC(=O)[C@H](CCC(N)=O)NC(=O)[C@H](C)NC(=O)[C@H](CCCCN)NC(=O)[C@H](CCCCNC(=O)COCCOCCNC(=O)COCCOCCNC(=O)CC[C@H](NC(=O)CCCCCCCCCCCCCCCCCCC(=O)O)C(=O)O)NC(=O)[C@H](CCC(=O)O)NC(=O)[C@H](CC(C)C)NC(=O)[C@H](Cc1ccc(O)cc1)NC(=O)[C@](C)(CCCCN)NC(=O)[C@H](CO)NC(=O)[C@H](Cc1ccc(O)cc1)NC(=O)[C@H](CC(=O)O)NC(=O)[C@H](CO)NC(=O)[C@@H](NC(=O)[C@H](Cc1ccccc1)NC(=O)[C@@H](NC(=O)CNC(=O)[C@H](Cc1c[nH]cn1)NC(=O)C(C)(C)NC(=O)[C@@H](N)Cc1c[nH]cn1)[C@@H](C)O)[C@@H](C)O)C(C)C)C(=O)N[C@@H](C)C(=O)NCC(=O)NCC(=O)N1CCC[C@H]1C(=O)N[C@@H](CO)C(=O)N[C@@H](CO)C(=O)NCC(=O)N[C@@H](C)C(=O)N1CCC[C@H]1C(=O)N1CCC[C@H]1C(=O)N1CCC[C@H]1C(=O)N[C@@H](CO)C(N)=O` [Compound 0113] (H-H[Aib]HGTFTSDYS[αMeK]YLEK([AEEA-AEEA-γGlu-C20 diacid])KAQQEFVEWLLAGGPSSGAPPPS-NH2), for which the EC50 on human GLP-1R was 0.032 nM. As for `CC(C)C[C@H](NC(=O)[C@H](CC(C)C)NC(=O)[C@H](Cc1c[nH]c2ccccc12)NC(=O)[C@H](CCC(=O)O)NC(=O)[C@@H](NC(=O)[C@H](Cc1ccccc1)NC(=O)[C@H](CCC(=O)O)NC(=O)[C@H](CCC(N)=O)NC(=O)[C@H](C)NC(=O)[C@H](C)NC(=O)[C@H](CCCCN)NC(=O)[C@H](CCCCNC(=O)COCCOCCNC(=O)COCCOCCNC(=O)CC[C@H](NC(=O)CCCCCCCCCCCCCCCCCCC(=O)O)C(=O)O)NC(=O)[C@H](CCC(=O)O)NC(=O)[C@H](CC(C)C)NC(=O)C(C)(C)NC(=O)[C@H](CCCCN)NC(=O)[C@H](CO)NC(=O)[C@H](Cc1ccc(O)cc1)NC(=O)[C@H](CC(=O)O)NC(=O)[C@H](CO)NC(=O)[C@@H](NC(=O)[C@H](Cc1ccccc1)NC(=O)[C@@H](NC(=O)CNC(=O)[C@H](Cc1c[nH]cn1)NC(=O)C(C)(C)NC(=O)[C@@H](N)Cc1c[nH]cn1)[C@@H](C)O)[C@@H](C)O)C(C)C)C(=O)N[C@@H](C)C(=O)NCC(=O)NCC(=O)N1CCC[C@H]1C(=O)N[C@@H](CO)C(=O)N[C@@H](CO)C(=O)NCC(=O)N[C@@H](C)C(=O)N1CCC[C@H]1C(=O)N1CCC[C@H]1C(=O)N1CCC[C@H]1C(=O)N[C@@H](CO)C(N)=O` [Compound 0107], the half-maximal effective concentration (EC50) at human GLP-1R (setting [2]) was found to be 0.016 nM. Same read-out and setting: the value for `CC(C)C[C@H](NC(=O)[C@H](CC(C)C)NC(=O)[C@H](Cc1c[nH]c2ccccc12)NC(=O)[C@H](CCC(=O)O)NC(=O)[C@@H](NC(=O)[C@H](Cc1ccccc1)NC(=O)[C@H](CCC(=O)O)NC(=O)[C@H](CCC(N)=O)NC(=O)[C@H](C)NC(=O)C(C)(C)NC(=O)[C@H](CCCCN)NC(=O)[C@H](CCCCNC(=O)COCCOCCNC(=O)COCCOCCNC(=O)CC[C@H](NC(=O)CCCCCCCCCCCCCCCCCCC(=O)O)C(=O)O)NC(=O)[C@H](CCC(=O)O)NC(=O)[C@H](CC(C)C)NC(=O)[C@H](Cc1ccc(O)cc1)NC(=O)[C@H](CCCCN)NC(=O)[C@H](CO)NC(=O)[C@H](Cc1ccc(O)cc1)NC(=O)[C@H](CC(=O)O)NC(=O)[C@H](CO)NC(=O)[C@@H](NC(=O)[C@H](Cc1ccccc1)NC(=O)[C@@H](NC(=O)CNC(=O)[C@H](Cc1c[nH]cn1)NC(=O)C(C)(C)NC(=O)[C@@H](N)Cc1c[nH]cn1)[C@@H](C)O)[C@@H](C)O)C(C)C)C(=O)N[C@@H](C)C(=O)NCC(=O)NCC(=O)N1CCC[C@H]1C(=O)N[C@@H](CO)C(=O)N[C@@H](CO)C(=O)NCC(=O)N[C@@H](C)C(=O)N1CCC[C@H]1C(=O)N1CCC[C@H]1C(=O)N1CCC[C@H]1C(=O)N[C@@H](CO)C(N)=O` [Compound 0110] (H-H[Aib]HGTFTSDYSKYLEK([AEEA-AEEA-γGlu-C20 diacid])K[Aib]AQEFVEWLLAGGPSSGAPPPS-NH2) was 0.016 nM.
